This is an account of results in US5104889A, “Thiazole derivatives” (Otsuka Pharmaceutical Factory, Inc., priority 1986, dated 1992).

The test system of this assay is fetal bovine heart-derived endothelial cells (FBHE cells). Put plainly: Angiogenesis inhibiting activity test: inhibition of proliferation of cultured FBHE cells (neutral red uptake, 3 days). The format is cell-based. The note with it: for IC50: Bos taurus, Endothelial cell, 3 days incubation, 10% FBS-added DME, 0.05% DMSO; for IC50 / FGF-/FGF+ ratio: FBHE cells; for FGF-/FGF+ ratio: ratio of IC50 without FGF to IC50 with FGF, 4320 min. How it is done: For use in this test, FBHE cells purchased from the ATCC were maintained by subculturing in a medium prepared by adding 20 ng/ml of fibroblast growth factor (FGF; Collaborative Research) to Dulbecco's modified Eagle's medium (DME; Nissui Seiyaku) supplemented with 10% fetal bovine serum (FBS). From two days before the start of the experiment, the addition of FGF was omitted and FBHE cells were cultured in DME with 10% FBS alone added. At the start of the experiment, the culture medium was removed, phosphate-buffered saline solution (PBS^(-); Nissui Seiyaku) was added instead, and cells were rinsed lightly. Then the PBS^(-) was removed, an adequate amount of 0.1% EDTA-0.2% trypsin solution was added and, after light rinsing, removed, and cells were stripped off. After addition of 10% FBS-added DME and sufficient pipetting, the cells stripped off were transferred to a centrifugal tube and centrifuged for washing (1,200 rpm, 5 minutes). The viable cell count was determined using a hemocytometer with the number of dead cells stained with trypan blue being substracted. The cell concentration was adjusted to 3×10^3 cells/well using 10% FBS-added DME. A cell suspension was thus prepared. […] For attaining test substance concentrations, serial double dilution was performed starting with 10 μg/ml. The following procedure was followed. Thus, to each well of 96-well Multiplates (Corning), there was added 50 μl of DME containing 10% FBS. Then, 50 μl of each test substance solution having the highest final concentration of 10 μg/ml was added to the well for the highest concentration and then serial dilution was carried out on each plate. Furthermore, 50 μl of FGF (5 ng/ml at maximum) was added to each well, followed by final addition of 100 μl of the cell suspension. The plates prepared by the above procedure were incubated in a carbon dioxide gas incubator for 3 days. After 3 days of incubation, neutral red was added to each well and the cells were allowed to take up the dye by 2 hours incubation in a carbon dioxide gas incubator. Thereafter, the cells were rinsed twice with PBS^(-) or physiological saline. Finally, 100 μl of acid alcohol (a 1:1 mixed solution prepared from 0.1 M aqueous monosodium phosphate solution and ethanol) was added to each well for dissolution thereinto of the dye taken up, and the absorbance of the resultant dye solution was determined using an absorptiometer. The absorbance values measured by the above procedure (3) for each dilution of each test substance with addition of FGF and without addition of FGF (normal condition) were plotted on a graph paper, and the test substance concentration required for 50% inhibition of the proliferation of cultured FBHE cells was determined from the graph obtained and expressed as an IC50 value.

[1] abbreviates: 72 h, with addition of FGF (5 ng/ml at maximum).
Setting [2] is: 72 h, without addition of FGF (normal condition).

≈ marks a conversion by molar mass, not a printed value.

By IC50 is commonly meant the concentration that gives 50% inhibition. The low end stands for greater potency, the high end for weaker potency.

With `CC(C)(C)c1cc(Sc2nccs2)cc(C(C)(C)C)c1O` [Example 42, 2,6-Di-tert-butyl-4-(2-thiazolylthio)phenol], the “FGF-/FGF+ ratio” value stood at 4.7. Besides, under setting [1], the midpoint of inhibition, the IC50, lay at 1.85 µg/mL (≈ 5.75 µM). The compound also had an IC50 under setting [2] of 8.71 µg/mL (≈ 27.1 µM).
On the same counts, the results for `CCCCCc1sc(Nc2cc(C(C)(C)C)c(O)c(C(C)(C)C)c2)nc1C` [Example 6] are 4.2, 2.18 µg/mL (≈ 5.61 µM) and 9.21 µg/mL (≈ 23.7 µM).
For `CCSc1sc(Nc2cc(C(C)(C)C)c(O)c(C(C)(C)C)c2)nc1C` [Example 12, 2,6-Di-tert-butyl-4-[(4-methyl-5-ethylthio-2-thiazolyl)amino]phenol] the same measures were 4.2, 1.55 µg/mL (≈ 4.09 µM) and 6.53 µg/mL (≈ 17.2 µM).
As for `Cc1nc(Nc2cc(C(C)(C)C)c(O)c(C(C)(C)C)c2)sc1C` [Example 11, 2,6-Di-tert-butyl-4-[(4,5-dimethyl-2-thiazolyl)amino]phenol], the “FGF-/FGF+ ratio” value is listed as 4.2. In addition, the “IC50 FGF-” value (72 h) amounted to 25.94 µg/mL (≈ 78 µM). Under setting [1], this compound came in with an IC50 of 6.14 µg/mL (≈ 18.5 µM).
As for `CC(C)(C)c1cc(Nc2nc(C(=O)NN)cs2)cc(C(C)(C)C)c1O` [Example 35, 2,6-di-di-tert-butyl-4-[(4-carbazoyl-2-thiazolyl)amino]phenol], the “FGF-/FGF+ ratio” value is reported as 6.0. Further, under setting [1], the IC50 came to 0.61 µg/mL (≈ 1.68 µM). This compound returned a half-inhibitory concentration (IC50) under setting [2] of 3.66 µg/mL (≈ 10.1 µM).
In the case of `CC(C)(C)c1cc(Nc2nc(CO)cs2)cc(C(C)(C)C)c1O.Cl.Cl` [Example 25, 2,6-di-tert-butyl-4-[(4-hydroxymethyl-2-thiazolyl)amino]phenol dihydrochlo ride], the “FGF-/FGF+ ratio” value is 6.3. The compound further came in with an IC50 under setting [1] of 0.92 µg/mL. The compound also gave an IC50 under setting [2] of 5.76 µg/mL.
For `CCOC(=O)c1sc(Nc2cc(C(C)(C)C)c(O)c(C(C)(C)C)c2)nc1C` [Example 18, 2,6-Di-tert-butyl-4-[(4-methyl-5-ethoxycarbonyl-2-thiazolyl)amino]phenol] the same measures were 6.2, 1.92 µg/mL (≈ 4.92 µM) and 11.9 µg/mL (≈ 30.5 µM).
In the case of `CCOC(=O)c1csc(Oc2cc(C(C)(C)C)c(O)c(C(C)(C)C)c2)n1` [Example 40, 2,6-di-tert-butyl-4-[(4-ethoxycarbonyl-2-thiazolyl)oxy]phenol], the “FGF-/FGF+ ratio” value worked out at 7.7. For the same compound, half-maximal inhibition under setting [1] (IC50) required 0.74 µg/mL (≈ 1.96 µM). The compound also displayed an IC50 under setting [2] of 5.72 µg/mL (≈ 15.2 µM).
For `CC(C)(C)c1cc(Nc2nccs2)cc(C(C)(C)C)c1O` [Example 2, 2,6-Di-tert-butyl-4-[(2-thiazolyl)amino]phenol] the same measures were 12.0, 0.89 µg/mL (≈ 2.92 µM) and 10.7 µg/mL (≈ 35.1 µM).
